# Assays:
# [1] = system: Mus musculus; assay: Antiinflammatory activity in cigarette smoking-induced COPD BALB/c mouse model assessed as reduction in pulmonary neutrophilia at 0.4 % administered as aerosolized formulation; assay type: functional; set-up: scale not given: the % may be the effect or the level left
# [2] = system: Mus musculus; assay: Antiinflammatory activity in ovalbumin-sensitized mouse asthma model assessed as reduction in airway-hyper responsiveness at 0.4 % administered as aerosolized formulation for 12 to 14 days; assay type: functional; set-up: scale not given: the % may be the effect or the level left
# [3] = system: Mus musculus; assay: Antiinflammatory activity in ovalbumin-sensitized mouse asthma model assessed as reduction in lung eosinophils at 0.4 % administered as aerosolized formulation for 12 to 14 days; assay type: functional; set-up: scale not given: the % may be the effect or the level left
# [4] = system: Sus scrofa; assay: Cardioprotective activity in pig MI model assessed as reduction in coronary artery occlusion at 0.5 mg/kg, iv administered as single bolus dose post 90 mins of reperfusion measured after 24 hrs; assay type: functional; set-up: scale not given: the % may be the effect or the level left
# [5] = system: Rattus norvegicus; assay: Antiinflammatory activity in Sprague-Dawley rat assessed as reduction in PAF/dextran-induced hind paw edema at 5 mg/kg; assay type: functional; set-up: scale not given: the % may be the effect or the level left
# [6] = system: Mus musculus; assay: Antiinflammatory activity in LPS-induced COPD BALB/c mouse model assessed as reduction in pulmonary neutrophilia at 0.4 % administered as aerosolized formulation; assay type: functional; set-up: scale not given: the % may be the effect or the level left
# [7] = system: Rattus norvegicus; assay: Cardioprotective activity in Sprague-Dawley rat MI model assessed as reduction in coronary artery occlusion at 0.05 to 5 mg/kg, iv administered as single bolus dose post 60 mins of reperfusion measured after 24 hrs; assay type: functional; set-up: scale not given: the % may be the effect or the level left; conditions: dose mg/kg 0.05-5
# [8] = Oral bioavailability in Han-Wistar rat; assay type: ADME, organism-based; conditions: in vivo
# [9] = target: T1, Phosphatidylinositol 4,5-bisphosphate 3-kinase catalytic subunit delta isoform (Homo sapiens, UniProt O00329); assay: Inhibition of PI3Kdelta in human whole blood assessed as inhibition of CD69 production in B lymphocyte by immunoassay
# T1 sequence (O00329 whole entry): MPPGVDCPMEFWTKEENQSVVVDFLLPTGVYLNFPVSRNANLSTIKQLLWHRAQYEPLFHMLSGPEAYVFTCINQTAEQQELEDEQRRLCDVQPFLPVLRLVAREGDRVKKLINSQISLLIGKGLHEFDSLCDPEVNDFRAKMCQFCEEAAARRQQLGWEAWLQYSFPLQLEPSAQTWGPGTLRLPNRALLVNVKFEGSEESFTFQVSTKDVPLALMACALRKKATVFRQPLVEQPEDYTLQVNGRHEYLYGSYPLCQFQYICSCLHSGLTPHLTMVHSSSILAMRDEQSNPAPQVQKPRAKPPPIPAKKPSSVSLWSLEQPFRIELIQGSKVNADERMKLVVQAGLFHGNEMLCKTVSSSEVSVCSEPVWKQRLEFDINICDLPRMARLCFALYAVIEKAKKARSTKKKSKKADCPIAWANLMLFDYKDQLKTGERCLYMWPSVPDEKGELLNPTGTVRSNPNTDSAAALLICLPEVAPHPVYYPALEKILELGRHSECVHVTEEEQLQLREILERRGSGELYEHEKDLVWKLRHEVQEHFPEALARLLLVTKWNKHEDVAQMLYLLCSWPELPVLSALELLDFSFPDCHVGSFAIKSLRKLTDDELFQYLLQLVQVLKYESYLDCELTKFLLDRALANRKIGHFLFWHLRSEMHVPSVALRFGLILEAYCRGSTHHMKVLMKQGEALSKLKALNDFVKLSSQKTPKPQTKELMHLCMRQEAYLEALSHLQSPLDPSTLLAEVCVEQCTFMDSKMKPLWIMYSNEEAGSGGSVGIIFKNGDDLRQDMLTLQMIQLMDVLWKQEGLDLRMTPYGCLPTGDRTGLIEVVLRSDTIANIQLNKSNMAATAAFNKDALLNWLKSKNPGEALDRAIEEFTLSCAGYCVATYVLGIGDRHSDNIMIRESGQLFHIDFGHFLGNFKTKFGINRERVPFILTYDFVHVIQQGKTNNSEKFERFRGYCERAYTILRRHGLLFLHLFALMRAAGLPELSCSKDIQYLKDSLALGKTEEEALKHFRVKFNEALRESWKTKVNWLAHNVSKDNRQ
# [10] = target: T1, Phosphatidylinositol 4,5-bisphosphate 3-kinase catalytic subunit delta isoform; assay: Inhibition of PI3Kdelta-mediated AKT phosphorylation in human Ramos cells by ELISA; assay type: cell-based
# [11] = target: T1, Phosphatidylinositol 4,5-bisphosphate 3-kinase catalytic subunit delta isoform; conditions: for IC50: read-out: IC50
# [12] = target: T2, Phosphatidylinositol 4,5-bisphosphate 3-kinase catalytic subunit delta isoform (Homo sapiens) (UniProt O00329); assay: Inhibition of PI3Kdelta-mediated Akt phosphorylation at 10 uM by cell-based assay
# T2 sequence (whole entry): T1 sequence (O00329 whole entry)
# [13] = target: T3, Phosphatidylinositol 4,5-bisphosphate 3-kinase catalytic subunit gamma isoform (Homo sapiens, UniProt P48736); assay: Inhibition of PI3Kgamma-mediated Akt phosphorylation in T cells by flow cytometry; assay type: cell-based, T-cell
# Target sequence in this assay (P48736 whole entry, canonical isoform): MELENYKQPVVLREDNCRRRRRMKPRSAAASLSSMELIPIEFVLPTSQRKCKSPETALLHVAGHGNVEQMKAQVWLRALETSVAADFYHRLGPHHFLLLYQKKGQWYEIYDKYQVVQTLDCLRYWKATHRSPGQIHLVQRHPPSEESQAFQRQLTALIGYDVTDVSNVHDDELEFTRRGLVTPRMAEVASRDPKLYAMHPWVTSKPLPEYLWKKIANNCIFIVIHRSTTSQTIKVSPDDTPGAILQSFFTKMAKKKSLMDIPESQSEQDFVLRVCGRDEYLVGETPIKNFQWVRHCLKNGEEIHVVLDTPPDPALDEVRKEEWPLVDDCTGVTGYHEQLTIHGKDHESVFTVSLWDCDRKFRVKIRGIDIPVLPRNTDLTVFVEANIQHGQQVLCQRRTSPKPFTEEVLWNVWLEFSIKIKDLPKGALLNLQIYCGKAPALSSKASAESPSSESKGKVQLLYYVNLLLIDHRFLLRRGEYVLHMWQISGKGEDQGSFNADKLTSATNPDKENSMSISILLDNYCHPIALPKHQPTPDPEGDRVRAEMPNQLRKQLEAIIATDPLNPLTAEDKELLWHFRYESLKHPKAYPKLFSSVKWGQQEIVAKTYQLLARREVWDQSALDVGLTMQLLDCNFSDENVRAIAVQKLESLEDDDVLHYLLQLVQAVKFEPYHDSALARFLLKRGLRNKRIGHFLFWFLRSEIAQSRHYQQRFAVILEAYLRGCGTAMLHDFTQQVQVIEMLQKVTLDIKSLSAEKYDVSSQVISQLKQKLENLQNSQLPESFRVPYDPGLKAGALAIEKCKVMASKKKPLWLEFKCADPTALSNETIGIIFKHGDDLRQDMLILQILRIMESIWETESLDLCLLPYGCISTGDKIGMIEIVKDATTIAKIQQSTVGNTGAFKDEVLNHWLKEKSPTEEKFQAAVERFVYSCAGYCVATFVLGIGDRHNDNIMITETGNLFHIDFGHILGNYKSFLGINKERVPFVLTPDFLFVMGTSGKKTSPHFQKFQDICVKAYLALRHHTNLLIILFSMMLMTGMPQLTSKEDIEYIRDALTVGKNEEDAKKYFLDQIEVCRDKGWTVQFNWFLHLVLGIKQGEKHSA
# [14] = target: T1, Phosphatidylinositol 4,5-bisphosphate 3-kinase catalytic subunit delta isoform; assay: Inhibition of PI3Kdelta assessed as inhibition of H2O2-induced AKT phosphorylation by cell-based assay
# [15] = target: Serine/threonine-protein kinase mTOR (Homo sapiens) (UniProt P42345); assay: Inhibition of mTOR
# [16] = target: T1, Phosphatidylinositol 4,5-bisphosphate 3-kinase catalytic subunit delta isoform; assay: Inhibition of PI3Kdelta in human PBMC
# [17] = target: T1, Phosphatidylinositol 4,5-bisphosphate 3-kinase catalytic subunit delta isoform; assay: Inhibition of PI3Kdelta in neutrophil assessed as inhibition of superoxide production by cell-based assay
# [18] = Clearance in Han-Wistar rat; assay type: ADME, organism-based; conditions: in vivo
# [19] = system: Rattus norvegicus; assay: Antiinflammatory activity in rat assessed as inhibition of Streptococcal cell wall-induced rat paw edema; assay type: functional; conditions: read-out: ID50 (the source's name)
# [20] = system: Rattus norvegicus; assay: Antiinflammatory activity in rat assessed as inhibition of Streptococcal cell wall-induced rat paw edema at 30 mg/kg; assay type: functional
# [21] = target: T1, Phosphatidylinositol 4,5-bisphosphate 3-kinase catalytic subunit delta isoform; assay: Inhibition of PI3Kdelta in human PBMC assessed as inhibition of anti-IgM-induced AKT phosphorylation by FACS analysis
# [22] = organism: Mus musculus; assay: Antiarthritic activity in adjuvant-induced rheumatoid arthritis mouse model assessed as reduction in disease clinical score; assay type: functional; set-up: scale not given: the % may be the effect or the level left
# [23] = target: T1, Phosphatidylinositol 4,5-bisphosphate 3-kinase catalytic subunit delta isoform; assay: Inhibition of PI3Kdelta by cell-based assay
# [24] = target: T1, Phosphatidylinositol 4,5-bisphosphate 3-kinase catalytic subunit delta isoform; assay: Inhibition of PI3Kdelta using phosphatidylinositol as substrate by gamma33P[ATP] incorporation assay
# [25] = target: T4, Phosphatidylinositol 4,5-bisphosphate 3-kinase catalytic subunit delta isoform (Mus musculus, UniProt O35904); assay: Inhibition of PI3Kdelta-mediated AKT phosphorylation in mouse Raw 264.7 cells by immunoassay; assay type: cell-based
# T4 sequence (O35904 whole entry): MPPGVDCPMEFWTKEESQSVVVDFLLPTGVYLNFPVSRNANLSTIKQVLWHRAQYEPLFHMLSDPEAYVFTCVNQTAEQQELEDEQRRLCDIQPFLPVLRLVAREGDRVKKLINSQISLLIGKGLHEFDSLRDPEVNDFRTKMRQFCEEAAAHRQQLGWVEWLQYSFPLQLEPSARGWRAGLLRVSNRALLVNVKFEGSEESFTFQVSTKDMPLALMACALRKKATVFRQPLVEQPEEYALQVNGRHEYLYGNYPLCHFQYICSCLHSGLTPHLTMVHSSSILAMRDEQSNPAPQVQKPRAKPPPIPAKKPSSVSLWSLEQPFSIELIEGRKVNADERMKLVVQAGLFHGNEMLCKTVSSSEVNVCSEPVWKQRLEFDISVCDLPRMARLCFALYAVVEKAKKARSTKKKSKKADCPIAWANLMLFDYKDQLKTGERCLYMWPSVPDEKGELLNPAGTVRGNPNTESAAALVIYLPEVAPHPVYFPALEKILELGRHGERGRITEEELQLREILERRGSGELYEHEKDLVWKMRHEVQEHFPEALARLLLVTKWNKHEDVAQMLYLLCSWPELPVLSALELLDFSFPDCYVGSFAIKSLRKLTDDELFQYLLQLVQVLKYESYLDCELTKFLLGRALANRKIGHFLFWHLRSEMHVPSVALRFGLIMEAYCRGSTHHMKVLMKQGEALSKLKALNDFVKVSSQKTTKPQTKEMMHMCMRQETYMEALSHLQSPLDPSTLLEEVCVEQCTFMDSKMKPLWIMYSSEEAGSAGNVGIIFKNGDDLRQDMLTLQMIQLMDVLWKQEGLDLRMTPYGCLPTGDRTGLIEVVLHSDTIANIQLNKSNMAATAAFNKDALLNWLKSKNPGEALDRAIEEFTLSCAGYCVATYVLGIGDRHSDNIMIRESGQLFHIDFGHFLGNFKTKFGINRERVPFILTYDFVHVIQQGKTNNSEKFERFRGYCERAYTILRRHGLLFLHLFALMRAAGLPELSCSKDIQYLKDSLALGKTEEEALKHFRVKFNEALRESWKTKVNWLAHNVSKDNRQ
# [26] = system: Mus musculus; assay: Antiinflammatory activity in LPS-induced COPD BALB/c mouse model assessed as reduction in pulmonary neutrophilia at 0.3 mg/kg, ip qd; assay type: functional; set-up: scale not given: the % may be the effect or the level left; conditions: route intraperitoneal
# [27] = organism: Homo sapiens; assay: Toxicity in healthy human; assay type: organism-based; conditions: in vivo
# [28] = system: Homo sapiens; assay: Toxicity in healthy human administered bid up to 7 days; assay type: organism-based; conditions: in vivo, 168 h
# [29] = organism: Homo sapiens; assay: Antitumor activity in Non-Hodgkin Lymphoma patient assessed as clinical response rate at 50 to 350 mg, bid; assay type: functional
# [30] = target: Phosphatidylinositol 4,5-bisphosphate 3-kinase catalytic subunit alpha isoform (Homo sapiens) (UniProt P42336); assay: Inhibition of PI3Kalpha at 1 uM
# Sequence of Phosphatidylinositol 4,5-bisphosphate 3-kinase catalytic subunit alpha isoform (Homo sapiens) (P42336 whole entry, canonical isoform): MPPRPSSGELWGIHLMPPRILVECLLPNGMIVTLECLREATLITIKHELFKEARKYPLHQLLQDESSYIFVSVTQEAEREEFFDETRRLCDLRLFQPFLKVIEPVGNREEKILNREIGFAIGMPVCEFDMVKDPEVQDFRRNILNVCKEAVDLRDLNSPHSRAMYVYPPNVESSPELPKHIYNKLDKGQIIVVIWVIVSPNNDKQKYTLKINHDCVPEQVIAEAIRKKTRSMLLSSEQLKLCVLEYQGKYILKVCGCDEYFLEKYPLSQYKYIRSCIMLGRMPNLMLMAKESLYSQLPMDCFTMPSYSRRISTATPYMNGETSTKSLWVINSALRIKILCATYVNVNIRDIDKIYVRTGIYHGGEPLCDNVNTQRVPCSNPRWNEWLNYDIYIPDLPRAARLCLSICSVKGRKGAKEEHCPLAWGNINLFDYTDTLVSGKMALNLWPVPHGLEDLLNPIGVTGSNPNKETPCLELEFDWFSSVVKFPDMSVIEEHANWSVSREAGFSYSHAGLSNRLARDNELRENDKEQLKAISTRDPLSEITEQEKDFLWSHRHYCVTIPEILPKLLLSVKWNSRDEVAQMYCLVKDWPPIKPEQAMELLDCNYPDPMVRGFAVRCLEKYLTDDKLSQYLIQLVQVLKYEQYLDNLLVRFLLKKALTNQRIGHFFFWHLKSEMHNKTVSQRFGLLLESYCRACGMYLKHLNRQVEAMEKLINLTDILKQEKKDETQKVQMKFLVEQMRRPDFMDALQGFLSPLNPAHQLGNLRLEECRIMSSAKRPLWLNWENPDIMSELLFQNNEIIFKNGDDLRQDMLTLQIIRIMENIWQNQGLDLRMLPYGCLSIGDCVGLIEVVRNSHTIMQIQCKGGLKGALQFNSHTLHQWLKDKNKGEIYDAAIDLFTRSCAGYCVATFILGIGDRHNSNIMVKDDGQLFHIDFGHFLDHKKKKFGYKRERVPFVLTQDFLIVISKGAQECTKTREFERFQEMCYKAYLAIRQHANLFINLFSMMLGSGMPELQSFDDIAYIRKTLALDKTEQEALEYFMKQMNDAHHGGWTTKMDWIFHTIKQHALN
# [31] = target: Phosphatidylinositol 4,5-bisphosphate 3-kinase catalytic subunit beta isoform (Homo sapiens) (UniProt P42338); assay: Inhibition of PI3Kbeta at 1 uM
# Sequence of Phosphatidylinositol 4,5-bisphosphate 3-kinase catalytic subunit beta isoform (Homo sapiens) (P42338 whole entry, looked up, canonical isoform): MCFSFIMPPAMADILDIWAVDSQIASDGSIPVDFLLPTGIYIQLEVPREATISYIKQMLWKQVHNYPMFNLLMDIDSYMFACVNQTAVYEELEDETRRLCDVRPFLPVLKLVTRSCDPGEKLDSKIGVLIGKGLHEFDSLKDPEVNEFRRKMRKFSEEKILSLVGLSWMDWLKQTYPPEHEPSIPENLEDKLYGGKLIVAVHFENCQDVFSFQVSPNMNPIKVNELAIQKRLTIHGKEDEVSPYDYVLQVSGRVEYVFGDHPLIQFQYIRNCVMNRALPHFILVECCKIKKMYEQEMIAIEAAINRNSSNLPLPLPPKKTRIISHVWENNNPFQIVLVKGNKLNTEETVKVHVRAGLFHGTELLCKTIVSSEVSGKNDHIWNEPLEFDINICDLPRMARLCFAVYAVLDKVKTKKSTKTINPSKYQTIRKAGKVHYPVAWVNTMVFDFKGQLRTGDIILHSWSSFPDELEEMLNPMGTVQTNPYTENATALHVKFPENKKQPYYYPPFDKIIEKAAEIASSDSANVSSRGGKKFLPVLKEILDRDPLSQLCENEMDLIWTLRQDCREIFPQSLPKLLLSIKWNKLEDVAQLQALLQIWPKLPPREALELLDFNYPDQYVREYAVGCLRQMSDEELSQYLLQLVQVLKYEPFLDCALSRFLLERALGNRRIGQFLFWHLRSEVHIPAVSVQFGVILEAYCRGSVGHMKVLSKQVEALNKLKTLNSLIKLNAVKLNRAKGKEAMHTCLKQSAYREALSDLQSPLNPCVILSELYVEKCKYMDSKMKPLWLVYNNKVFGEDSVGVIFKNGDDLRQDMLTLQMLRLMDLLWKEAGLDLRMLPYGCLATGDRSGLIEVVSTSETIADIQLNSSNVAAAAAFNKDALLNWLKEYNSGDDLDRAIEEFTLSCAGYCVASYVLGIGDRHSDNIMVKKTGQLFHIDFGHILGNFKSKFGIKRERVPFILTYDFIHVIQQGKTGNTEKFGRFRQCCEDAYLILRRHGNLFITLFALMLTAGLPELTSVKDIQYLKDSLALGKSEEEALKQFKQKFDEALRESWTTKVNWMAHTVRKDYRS
# [32] = target: T3, Phosphatidylinositol 4,5-bisphosphate 3-kinase catalytic subunit gamma isoform; assay: Inhibition of PI3Kgamma at 1 uM
# Target sequence in this assay (P48736 whole entry, looked up, canonical isoform): as the sequence (P48736 whole entry, canonical isoform) above
structure (smiles),measurement,setting,value
Nc1nc(N)c2nc(-c3cccc(O)c3)c(-c3cccc(O)c3)nc2n1 [TG100-115],Activity,[1],>=81%
same,Activity,[2],50%
same,Activity,[3],79%
same,Activity,[4],35%
same,Activity,[5],>=62%
same,Activity,[6],42%
same,Activity,[7],>=40%
Cc1ccc(-c2ccc3c(c2)N(C2=NC4CC(C)(C)NC(=O)C4S2)CCO3)nn1 (configuration not stated),bioavailability,[8],66%
Cc1nc2ccccc2n1-c1nc(N2CCOCC2)c2oc(CN3CCN(C(C)(C)C(N)=O)CC3)cc2n1,IC50,[9],17.8 nM
CC(Nc1ncnc2[nH]cnc12)c1cc(Cl)c2cncn2c1-c1cccc(F)c1 (configuration not stated),IC50,[10],< 100 nM
same,IC50,[11],< 100 nM
CC(C)(Oc1cccc2[nH]c(-c3nccc(-c4cncc(S(N)(=O)=O)c4)n3)cc12)C(=O)O,inhibition,[12],> 95%
Cc1nc(C(=O)Nc2cc(-c3ccnc4[nH]ccc34)cc3[nH]ncc23)cs1,IC50,[13],≤ 1000 nM
same,pIC50,[11],>= 5
C#Cc1cccc2nc(Cn3nc(-c4cccc(O)c4)c4c(N)ncnc43)n(Cc3cccc(OC)c3)c(=O)c12,IC50,[14],570 nM
O=C(Nc1cc(-c2cnc3[nH]ncc3c2)cc2[nH]ncc12)c1cccc(CN2CCS(=O)(=O)CC2)n1,IC50,[13],≤ 10000 nM
same,pIC50,[11],>= 5
CC(=O)Nc1nc2ccc(-c3nn(C4CCCC4)c4ncnc(N)c34)cc2s1,INH,[15],< 0.05 µM
same,IC50,[11],< 50 nM
COc1ccccc1S(=O)(=O)Nc1cc(-c2cc(NC(=O)c3csc(CN4C[C@@H](C)O[C@@H](C)C4)n3)c3cn[nH]c3c2)cnc1OC,IC50,[16],≤ 10000 nM
same,pIC50,[11],>= 5
Cn1cc(-c2ccc3c(c2)N(C2=NC4CC(C)(C)NC(=O)C4S2)CCO3)cn1 (configuration not stated),IC50,[17],111 nM
same,clearance,[18],7 mL/min/kg
same,bioavailability,[8],97%
Cc1cccn2c(C(C)Nc3ncnc4[nH]cnc34)c(-c3cc(F)cc(F)c3)nc12 (configuration not stated),IC50,[10],< 500 nM
same,IC50,[11],< 200 nM
O=C(Nc1nn[nH]n1)c1cnc(N2CCOCC2)nc1OC1CCCCCC1,ED50,[19],16.3 mg/kg
same,IC50,[11],197 nM
same,inhibition in vivo at 30 mg/kg,[20],52%
COc1cc(Nc2nc3ccccc3nc2NS(=O)(=O)c2ccc(CN(C)C)cc2)cc(OC)c1,IC50,[21],16 nM
O=C1NC(=O)/C(=C/c2ccc3nccnc3c2)S1,Activity,[22],40%
Cc1ccccc1-n1c(Cn2nc(-c3cc(O)cc(F)c3)c3c(N)ncnc32)nc2scc(C)c2c1=O,IC50,[23],< 100 nM
same,IC50,[11],< 100 nM
CC(C)c1nc2ccccc2n1-c1nc(N2CCOCC2)c2nc(OC3CN(C4CCS(=O)(=O)CC4)C3)n(C)c2n1,IC50,[9],3 nM
O=c1cc(N2CCOCC2)oc2c(-c3ccccc3)cccc12 [LY-294002],IC50,[24],1050 nM
O=C1NC(=O)/C(=C/c2ccc3ncnc(N4CCC(C(F)(F)F)CC4)c3n2)S1,IC50,[25],< 10 nM
same,IC50,[11],6 nM
C[C@@H]1C[C@H]2[C@@H]3CCC4=CC(=O)C=C[C@]4(C)[C@@]3(F)[C@@H](O)C[C@]2(C)[C@@]1(O)C(=O)CO [DEXAMETHASONE],Activity,[26],70%
CN(C)C1CCN(Cc2cc3nc(-c4cccc5[nH]ccc45)nc(N4CCOCC4)c3s2)CC1,IC50,[9],17 nM
same,Ki,[11],4.9 nM
CC[C@H](Nc1ncnc2[nH]cnc12)c1nc2cccc(F)c2c(=O)n1-c1ccccc1 [IDELALISIB],MTD,[27],400 mg
same,MTD,[28],200 mg
same,Activity,[29],56%
CC(c1oc2ccccc2c(=O)c1-c1cccc(F)c1)n1cnc2c(N)ncnc21 (configuration not stated),inhibition,[30],< 25%
same,inhibition,[31],< 25%
same,inhibition,[32],< 25%
same,IC50,[11],< 250 nM
